Assay results taken from patent US10246429B2, “Vinyl fluoride cyclopropyl fused thiazin-2-amine compounds as beta-secretase inhibitors and methods of use” (AMGEN INC., priority 2015, dated 2019).
pIC50: −log10 of the molar value.

What was measured:
BACE1 [1] = target: T1, BACE1 (Homo sapiens (Human), UniProt P56817); assay: In vitro enzymatic BACE1 FRET assay; assay type: biochemical; conditions: read-out: IC50 IP (μM) BACE1 Enzyme
Target sequence in this assay (P56817 46-501): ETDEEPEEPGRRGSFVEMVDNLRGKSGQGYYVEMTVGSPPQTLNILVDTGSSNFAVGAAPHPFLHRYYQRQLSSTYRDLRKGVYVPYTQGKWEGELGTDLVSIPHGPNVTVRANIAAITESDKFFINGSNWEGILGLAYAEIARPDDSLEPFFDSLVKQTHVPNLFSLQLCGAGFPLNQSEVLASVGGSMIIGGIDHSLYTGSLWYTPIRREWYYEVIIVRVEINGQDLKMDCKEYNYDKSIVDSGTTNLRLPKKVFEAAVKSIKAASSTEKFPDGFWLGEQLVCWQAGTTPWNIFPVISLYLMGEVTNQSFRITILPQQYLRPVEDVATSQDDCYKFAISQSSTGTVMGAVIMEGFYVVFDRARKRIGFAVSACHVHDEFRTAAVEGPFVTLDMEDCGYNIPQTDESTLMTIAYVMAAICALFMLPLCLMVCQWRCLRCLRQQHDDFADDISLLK
Excerpt: (§1) In Vitro Enzymatic BACE1 and BACE2 FRET (Fluorescence Resonance Energy Transfer) Assays (Enzyme Assay Data in Table 1)

Cathepsin D (CatD) = Cathepsin D (CatD) (Homo sapiens (Human), UniProt P07339); assay: CatD assay; assay type: biochemical; conditions: read-out: IC50 IP (μM) CatD
BACE2 = BACE2 (Homo sapiens (Human), UniProt Q9Y5Z0); assay: In vitro enzymatic BACE2 FRET assay; assay type: biochemical; conditions: read-out: IC50 IP (μM) BACE2 Enzyme
Excerpt: as §1

BACE1 [2] = target: T1, BACE1; assay: BACE1 cell assay; assay type: cell-based; conditions: for IC50: read-out: IC50 IP (μM) BACE1 Cell
Target sequence in this assay (P56817 46-501, species assumed): as the sequence (P56817 46-501) above

Chain of BACE2 (Q9Y5Z0 63-518): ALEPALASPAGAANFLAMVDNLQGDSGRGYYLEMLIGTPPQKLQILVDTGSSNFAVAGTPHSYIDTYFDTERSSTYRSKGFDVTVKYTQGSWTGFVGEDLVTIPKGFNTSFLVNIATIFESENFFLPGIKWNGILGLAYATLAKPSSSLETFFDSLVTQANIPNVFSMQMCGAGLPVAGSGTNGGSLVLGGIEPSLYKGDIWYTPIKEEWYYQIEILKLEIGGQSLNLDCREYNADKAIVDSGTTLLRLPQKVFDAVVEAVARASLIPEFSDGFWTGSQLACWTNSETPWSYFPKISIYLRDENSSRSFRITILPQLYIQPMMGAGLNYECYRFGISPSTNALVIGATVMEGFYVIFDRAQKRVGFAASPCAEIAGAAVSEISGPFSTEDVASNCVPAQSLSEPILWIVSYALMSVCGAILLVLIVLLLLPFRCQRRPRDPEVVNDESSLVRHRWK
Chain of Cathepsin D (CatD) (P07339 65-412, species assumed): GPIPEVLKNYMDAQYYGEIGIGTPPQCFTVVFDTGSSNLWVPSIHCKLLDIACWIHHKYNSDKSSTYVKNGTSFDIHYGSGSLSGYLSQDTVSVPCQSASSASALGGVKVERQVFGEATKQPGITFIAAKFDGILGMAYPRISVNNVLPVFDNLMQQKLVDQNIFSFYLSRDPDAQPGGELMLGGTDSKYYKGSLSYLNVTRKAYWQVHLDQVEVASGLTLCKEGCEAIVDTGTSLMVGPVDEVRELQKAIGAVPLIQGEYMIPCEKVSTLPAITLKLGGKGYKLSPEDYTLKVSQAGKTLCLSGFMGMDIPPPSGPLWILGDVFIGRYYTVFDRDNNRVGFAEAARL

SMILES	IC50 (BACE1 [1]) [µM]	IC50 (Cathepsin D (CatD)) [µM]	IC50 (BACE2) [µM]	pIC50 (BACE1 [2])	IC50 (BACE1 [2]) [µM]
COCCOc1cnc(/C(F)=C/c2ccc(F)c([C@@]3(C)N=C(N)S[C@@]4(C(=O)N(C)C)C[C@H]43)c2)cn1 [Example 210, (1S,5S,6S)-3-amino-5-(2-fluoro-5-((Z)-2-fluoro-2-(5-(2-methoxyethoxy)pyrazin-2-yl)vinyl)phenyl)-N,N,5-trimethyl-2-thia-4-azabicyclo[4.1.0]hept-3-ene-1-carboxamide]	0.011	159	0.072	8.15	–
CC1CCN(C(=O)[C@]23C[C@H]2[C@@](C)(c2cc(/C=C(\F)c4ccc(C#N)cn4)ccc2F)N=C(N)S3)CC1 [Example 147, 6-((Z)-2-(3-((1S,5S,6S)-3-amino-5-methyl-1-(4-methylpiperidine-1-carbonyl)-2-thia-4-azabicyclo[4.1.0]hept-3-en-5-yl)-4-fluorophenyl)-1-fluorovinyl)nicotinonitrile]	0.000793	93.9	0.00486	–	0.003
C#CCOc1cnc(/C(F)=C/c2cnc(F)c([C@@]3(C)N=C(N)S[C@@]4(C(=O)N5CC[C@@H](F)C5)C[C@H]43)c2)cn1 [Example 295, ((1S,5S,6S)-3-amino-5-(2-fluoro-5-((Z)-2-fluoro-2-(5-(prop-2-yn-1-yloxy)pyrazin-2-yl)vinyl)pyridin-3-yl)-5-methyl-2-thia-4-azabicyclo[4.1.0]hept-3-en-1-yl)((R)-3-fluoropyrrolidin-1-yl)methanone]	0.0008	58.6	0.078	–	0.0004
C#Cc1cnc(/C(F)=C/c2ccc(F)c([C@@]3(C)N=C(N)S[C@@]4(C(=O)N(C)C)C[C@H]43)c2)cn1 [Example 205, (1S,5S,6S)-3-amino-5-(5-((Z)-2-(5-ethynylpyrazin-2-yl)-2-fluorovinyl)-2-fluorophenyl)-N,N,5-trimethyl-2-thia-4-azabicyclo[4.1.0]hept-3-ene-1-carboxamide]	0.002	113	0.01	6.24	–
CC(C)[C@H]1CN(C(=O)[C@]23C[C@H]2[C@@](C)(c2cc(/C=C(\F)c4ccc(C#N)cn4)ccc2F)N=C(N)S3)CCO1 [Example 316, 6-((Z)-2-(3-((1S,5S,6S)-3-amino-1-((S)-2-isopropylmorpholine-4-carbonyl)-5-methyl-2-thia-4-azabicyclo[4.1.0]hept-3-en-5-yl)-4-fluorophenyl)-1-fluorovinyl)nicotinonitrile]	0.003	170	0.033	–	0.007
C[C@]1(c2cc(/C=C(\F)c3ccc(C#N)cn3)ccc2F)N=C(N)S[C@]2(CO)[C@H]1C2(F)F [Example 251, 6-((Z)-2-(3-((1S,5S,6R)-3-amino-7,7-difluoro-1-(hydroxymethyl)-5-methyl-2-thia-4-azabicyclo[4.1.0]hept-3-en-5-yl)-4-fluorophenyl)-1-fluorovinyl)nicotinonitrile]	0.012	360	0.159	–	0.062
COC(=O)[C@]12C[C@H]1[C@@](C)(c1cc(/C=C(/F)c3ccc(Cl)cn3)cnc1F)N=C(N)S2 [Example 177, (1S,5S,6S)-methyl 3-amino-5-(5-((E)-2-(5-chloropyridin-2-yl)-2-fluorovinyl)-2-fluoropyridin-3-yl)-5-methyl-2-thia-4-azabicyclo[4.1.0]hept-3-ene-1-carboxylate]	0.291	527	2.9	–	5.44
C[C@]1(c2cc(/C=C(\F)c3ccc(C#N)cn3)ccc2F)N=C(N)S[C@@]2(C(=O)N3CCOC4(CC4)C3)C[C@H]21 [Example 318, 6-((Z)-2-(3-((1S,5S,6S)-3-amino-5-methyl-1-(4-oxa-7-azaspiro[2.5]octane-7-carbonyl)-2-thia-4-azabicyclo[4.1.0]hept-3-en-5-yl)-4-fluorophenyl)-1-fluorovinyl)nicotinonitrile]	0.0029	108	0.051	–	0.0033
